Test results taken from patent US20130123481A1, “MODIFIED NUCLEOSIDES, NUCLEOTIDES, AND NUCLEIC ACIDS, AND USES THEREOF” (MODERNA THERAPEUTICS, priority 2011, published 2013).
Where two headings read alike, the source gives them in different places.

How the values were obtained:
rabbit reticulysates = assay: G-CSF expression in rabbit reticulysates (ELISA); type: biochemical; details: 250 ng modified G-CSF mRNA in rabbit reticulysates
Experimental: (§1) To assess the activity of all our different chemical modifications in the context of a second open reading frame, we replicated experiments previously conducted using luciferase mRNA, with human G-CSF mRNA. […] The mutant T7 polymerase was obtained commercially (Durascribe® T7 Transcription kit (Cat. No. DS010925) (Epicentre®, Madison, Wis.).
(§2) The modified RNA in Tables 45 and 46 were transfected in vitro in HeLa cells or added to rabbit reticulysates (250 ng of modified mRNA) as indicated. […] In Table 45, “NT” means not tested.

wild-type T7 polymerase = wild-type T7 polymerase (Escherichia phage T7, UniProt P00573); assay: In Vitro Transcription with Wild-Type T7 Polymerase (transcription and capping yield); details: for In vitro transcription Yield: wild-type T7 polymerase; for In vitro transcription Yield / Capping reaction Yield: OD260; for IVT (G-CSF) / IVT (Luc): Table 47 naturally occurring; for Capping reaction Yield: enzymatic capping
Chain of wild-type T7 polymerase (P00573 whole entry): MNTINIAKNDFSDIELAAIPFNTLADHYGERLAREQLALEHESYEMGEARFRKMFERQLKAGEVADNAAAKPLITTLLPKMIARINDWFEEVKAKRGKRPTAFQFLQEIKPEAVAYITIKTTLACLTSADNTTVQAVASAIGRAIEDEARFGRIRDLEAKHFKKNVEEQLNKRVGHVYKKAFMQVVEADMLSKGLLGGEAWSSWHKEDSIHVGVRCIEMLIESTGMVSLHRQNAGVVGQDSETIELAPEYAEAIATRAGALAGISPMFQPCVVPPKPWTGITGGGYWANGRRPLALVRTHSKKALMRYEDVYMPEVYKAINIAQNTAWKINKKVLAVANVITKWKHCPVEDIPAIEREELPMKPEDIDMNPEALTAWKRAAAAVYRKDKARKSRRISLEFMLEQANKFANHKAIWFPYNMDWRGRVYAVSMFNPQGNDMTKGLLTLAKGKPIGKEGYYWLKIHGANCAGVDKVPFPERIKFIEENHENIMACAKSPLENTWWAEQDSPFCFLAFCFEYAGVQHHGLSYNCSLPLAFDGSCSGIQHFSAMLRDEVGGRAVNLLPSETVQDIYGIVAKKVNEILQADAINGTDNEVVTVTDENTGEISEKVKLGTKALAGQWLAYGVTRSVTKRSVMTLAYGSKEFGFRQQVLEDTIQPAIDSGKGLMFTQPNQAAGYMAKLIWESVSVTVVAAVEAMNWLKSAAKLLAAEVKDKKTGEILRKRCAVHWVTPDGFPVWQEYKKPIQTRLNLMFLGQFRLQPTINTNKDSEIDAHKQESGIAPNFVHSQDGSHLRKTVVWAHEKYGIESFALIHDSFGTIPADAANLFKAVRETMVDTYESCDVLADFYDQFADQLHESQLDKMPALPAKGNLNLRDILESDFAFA
Experimental: The luciferase and G-CSF modified mRNA were also subjected to an enzymatic capping reaction and each modified mRNA capping reaction was evaluated for yield by spectrophometic measurement (OD260) and correct size assessed using bioanalyzer.

HeLa cells [1] = assay: G-CSF expression in HeLa cells (ELISA); type: cell-based, human; design: key to Protein (G-CSF; HeLa): the protein production of HeLa is judged by “+,” “+/−” and “−”; the protein production of HeLa is judged by “+,” “+/−” and “−”; the protein production of HeLa is judged by “+,” “+/−” and “−”; details: for G-CSF protein (pg/ml) HeLa cells: fully modified G-CSF mRNA transfected in HeLa cells, ELISA
Experimental: as §1, §2

[2] = test system: peripheral blood mononuclear cells (PBMC); assay: In Vitro Screening in PBMC - G-CSF protein expression; type: cell-based, human; details: for Protein (G-CSF; PBMC): background about 110 pg/ml; for G-CSF Protein Expression: 500 ng mRNA
Excerpt: (§3) The supernatant was harvested and stored frozen until analyzed by ELISA to determine the G-CSF protein expression, and the induction of the cytokines interferon-alpha (IFN-α) and tumor necrosis factor alpha (TNF-α).

[3] = test system: peripheral blood mononuclear cells (PBMC), interferon-alpha (IFN-α); type: cell-based, human; details: IFN-alpha, background about 70 pg/ml
Excerpt: as §3

HeLa cells [4] = assay: In vitro Screening in HeLa Cells - luciferase (RLU); type: cell-based, human; design: key to Protein (Luc; HeLa): the protein production of HeLa is judged by “+,” “+/−” and “−”; the protein production of HeLa is judged by “+,” “+/−” and “−”; the protein production of HeLa is judged by “+,” “+/−” and “−”
Experimental: The 2′Fluoro-modified mRNA were then transfected into HeLa cells to assess protein production in a cell context and the same mRNA were also assessed in a cell-free rabbit reticulocyte system. A control of unmodified luciferase (natural luciferase) was used for both transcription experiments, a control of untreated and mock transfected (Lipofectamine 2000 alone) were also analyzed for the HeLa transfection and a control of no RNA was analyzed for the rabbit reticulysates.
For the HeLa transfection experiments, the day before transfection, 20,000 HeLa cells (ATCC no. CCL-2; Manassas, Va.) were harvested by treatment with Trypsin-EDTA solution (LifeTechnologies, Grand Island, N.Y.) and seeded in a total volume of 100 ul EMEM medium (supplemented with 10% FCS and 1× Glutamax) per well in a 96-well cell culture plate (Corning, Manassas, Va.). The cells were grown at […] in 5% CO2 atmosphere overnight. […] Lipofectamine 2000 (LifeTechnologies, Grand Island, N.Y.) was used as transfection reagent and 0.2 ul were diluted in 10 ul final volume of OPTI-MEM. After […] of incubation at room temperature, both solutions were combined and incubated an additional 15 minute at room temperature. Then the 20 ul combined solution was added to the 100 ul cell culture medium containing the HeLa cells and incubated at room temperature. After 18 to 22 hours of incubation cells expressing luciferase were lysed with 100 ul of Passive Lysis Buffer (Promega, Madison, Wis.) according to manufacturer instructions. Aliquots of the lysates were transferred to white opaque polystyrene 96-well plates (Corning, Manassas, Va.) and combined with 100 ul complete luciferase assay solution (Promega, Madison, Wis.). The lysate volumes were adjusted or diluted until no more than 2 mio relative light units (RLU) per well were detected for the strongest signal producing samples and the RLUs for each chemistry tested are shown in Table 42. The plate reader was a BioTek Synergy H1 (BioTek, Winooski, Vt.). The background signal of the plates without reagent was about 200 relative light units per well.
To evaluate using of 2′fluoro-modified mRNA in combination with other modification a series of mRNA were transcribed using either wild-type T7 polymerase (non-fluoro-containing compounds) or using mutant T7 polymerases (fluyoro-containing compounds) as described in Example 86. All modified mRNA were tested by in vitro transfection in HeLa cells.
After 18 to 22 hours of incubation cells expressing luciferase were lysed with 100 ul of Passive Lysis Buffer (Promega, Madison, Wis.) according to manufacturer instructions. Aliquots of the lysates were transferred to white opaque polystyrene 96-well plates (Corning, Manassas, Va.) and combined with 100 ul complete luciferase assay solution (Promega, Madison, Wis.). The lysate volumes were adjusted or diluted until no more than 2 mio relative light units (RLU) per well were detected for the strongest signal producing samples and the RLUs for each chemistry tested are shown in Table 44. The plate reader was a BioTek Synergy H1 (BioTek, Winooski, Vt.). The background signal of the plates without reagent was about 200 relative light units per well.

[5] = Table 47 naturally occurring, *** = production seen in cell free translations
[6] = G-CSF mRNA in vitro transcription, Pass/Fail
[7] = luciferase mRNA in vitro transcription, Pass/Fail
[8] = PBMC Donor 1, 0.4 uL Lipofectamine 2000
[9] = Table 48 non-naturally occurring

Luciferase control
G-CSF protein (pg/ml) Rabbit reticulysates cells (rabbit reticulysates): 0 pg/mL

N-1-methyladenosine [Compound N-1-methyladenosine]
In vitro transcription Yield (wild-type T7 polymerase; G-CSF mRNA): 0.63 mg

O=c1[nH]c(=S)ccn1[C@@H]1O[C@H](CO)[C@@H](O)[C@H]1O [4-thiouridine (s^4U)]
Protein (G-CSF; HeLa) (HeLa cells [1]; [5]): + | Protein (G-CSF; PBMC) ([2]; Table 47 naturally occurring): +/− (“+/−” means 150-300 pg/ml G-CSF) | IVT (G-CSF) (wild-type T7 polymerase; [6]): Pass | IVT (Luc) (wild-type T7 polymerase; [7]): Fail | Cytokines (G-CSF; PBMC) ([3]; Table 47 naturally occurring): ++ (“++” means greater than 300 pg/ml IFN-alpha)

COc1cn([C@@H]2O[C@H](CO)[C@@H](O)[C@H]2O)c(=O)[nH]c1=O [5-methoxyuridine]
G-CSF protein (pg/ml) HeLa cells (HeLa cells [1]): 1,715,909 pg/ml | G-CSF Protein Expression [2, 8]: 2,964 pg/ml | G-CSF Protein Expression ([2]; PBMC Donor 2): 1,832 pg/ml | G-CSF Protein Expression ([2]; PBMC Donor 3): 1,800 pg/ml | G-CSF protein (pg/ml) Rabbit reticulysates cells (rabbit reticulysates): 201,750 pg/ml

O=c1[nH]c(=S)ccn1[C@@H]1O[C@H](CO)[C@@H](O)[C@H]1O [4-thiouridine]
G-CSF protein (pg/ml) HeLa cells (HeLa cells [1]): 107,273 pg/ml | G-CSF Protein Expression [2, 8]: 5 pg/mL | G-CSF Protein Expression ([2]; PBMC Donor 2): 391 pg/mL | G-CSF Protein Expression ([2]; PBMC Donor 3): 218 pg/mL | G-CSF protein (pg/ml) Rabbit reticulysates cells (rabbit reticulysates): 52,375 pg/ml

5-Br-Uridine [Compound 5-Br-Uridine]
Protein (G-CSF; HeLa) (HeLa cells [1]; [9]): + | Protein (G-CSF; PBMC) [2, 9]: + (“+” means greater than 300 pg/ml G-CSF) | IVT (G-CSF), first result (wild-type T7 polymerase; Table 48 non-naturally occurring, G-CSF mRNA in vitro transcription, Pass/Fail): Pass | IVT (Luc), first result (wild-type T7 polymerase; Table 48 non-naturally occurring, luciferase mRNA in vitro transcription, Pass/Fail): Pass | Cytokines (G-CSF; PBMC) [3, 9]: + (“+” means greater than 100 pg/ml IFN-alpha) | Protein (Luc; HeLa) (HeLa cells [4]; Table 48 non-naturally occurring, ** mutant T7 polymerase): +

COC(=O)C=Cc1cn([C@@H]2O[C@H](CO)[C@@H](O)[C@H]2O)c(=O)[nH]c1=O [5 (2 carbomethoxyvinyl) uridine]
In vitro transcription Yield (wild-type T7 polymerase; G-CSF mRNA): 1.8 mg | Capping reaction Yield (wild-type T7 polymerase; G-CSF modified mRNA (wild-type T7)): 1.28 mg | In vitro transcription Yield (wild-type T7 polymerase; Luciferase mRNA): 0.89 mg | Capping reaction Yield (wild-type T7 polymerase; Luciferase modified mRNA (wild-type T7)): 0.54 mg

N^6-methyladenosine (m^6A)
Protein (G-CSF; HeLa) (HeLa cells [1]; [5]): − | Protein (G-CSF; PBMC) ([2]; Table 47 naturally occurring): +/− (“+/−” means 150-300 pg/ml G-CSF) | IVT (G-CSF) (wild-type T7 polymerase; [6]): Pass | IVT (Luc) (wild-type T7 polymerase; [7]): Pass | Cytokines (G-CSF; PBMC) ([3]; Table 47 naturally occurring): ++++ (“++++” means greater than 1,000 pg/ml interferon-alpha (IFN-alpha)) | Protein (Luc; HeLa) (HeLa cells [4]; [5]): −

Nc1nc(=O)n([C@@H]2O[C@H](CO)[C@@H](O)[C@H]2O)cc1C=O [5-formylcytidine (f^5C)]
Protein (G-CSF; HeLa) (HeLa cells [1]; [5]): −*** | IVT (G-CSF) (wild-type T7 polymerase; [6]): Pass | IVT (Luc) (wild-type T7 polymerase; [7]): Pass | Cytokines (G-CSF; PBMC) ([3]; Table 47 naturally occurring): + (“+” means greater than 100 pg/ml IFN-alpha) | Protein (Luc; HeLa) (HeLa cells [4]; [5]): −***

O=c1ccn([C@@H]2O[C@H](CO)[C@@H](O)[C@H]2O)c(=S)[nH]1 [2-thiouridine (s^2U)]
Protein (G-CSF; HeLa) (HeLa cells [1]; [5]): + | Protein (G-CSF; PBMC) ([2]; Table 47 naturally occurring): + (“+” means greater than 300 pg/ml G-CSF) | IVT (G-CSF) (wild-type T7 polymerase; [6]): Pass | IVT (Luc) (wild-type T7 polymerase; [7]): Pass | Cytokines (G-CSF; PBMC) ([3]; Table 47 naturally occurring): + (“+” means greater than 100 pg/ml IFN-alpha) | Protein (Luc; HeLa) (HeLa cells [4]; [5]): −
